Measured values: PubChem BioAssay (NCI)
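Following 48 hours of exposure in 96-well plates, responses at five concentrations were used to interpolate endpoints linearly. GI50 is the concentration that inhibits growth by half. TGI denotes the concentration required for complete inhibition of growth.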

Key:
Experiment in all cases: inhibition of tumour cell growth, NCI panel, 48 h
[1] = tested on: 786-0 renal
[2] = tested on: A498 renal
[3] = tested on: BT-549 breast
[4] = tested on: EKVX NSCLC
[5] = tested on: MDA-MB-231 breast
[6] = tested on: NCI-H460 lung
[7] = tested on: SNB-19 CNS
[8] = tested on: SW-620 colon
[9] = tested on: TK-10 renal
[10] = tested on: UACC-62 melanoma

SMILES	GI50 [1] [µM]	TGI [1] [µM]	GI50 [2] [µM]	TGI [2] [µM]	GI50 [3] [µM]	TGI [3] [µM]	GI50 [4] [µM]	TGI [4] [µM]	GI50 [5] [µM]	TGI [5] [µM]	GI50 [6] [µM]	TGI [6] [µM]	GI50 [7] [µM]	TGI [7] [µM]	GI50 [8] [µM]	TGI [8] [µM]	GI50 [9] [µM]	TGI [9] [µM]	GI50 [10] [µM]	TGI [10] [µM]
COc1ccc(C(=O)/C=C/c2ccc(Cl)cc2)cc1S(N)(=O)=O	1.74	3.69	10.4	22.1	2.29	7.33	4.56	18.4	3.48	11.7	2.58	6.39	3.1	10.3	1.76	3.85	2.47	7.81	4.88	17.5
C=C1C(=O)OC(CCCCCCCC)C1C(=O)O (stereo not drawn)	18.2	36.7	17.4	33.3	12.6	26.6	16.1	31.2	17.7	33.2	18.6	37.5	17	32.1	15.2	30.7	18.9	33.6	12.1	24.7
NC(=O)C/C=C/CC(N)=O	–	> 100	–	> 100	–	> 100	–	> 100	–	> 100	–	> 100	–	> 100	–	> 100	–	> 100	–	> 100
O=C(Nc1ccc(Cl)c(Cl)c1)Nc1ccc(Cl)c([N+](=O)[O-])c1	1.49	5.21	1.37	4.47	1.87	5.33	1.04	7.35	2.93	7.09	0.888	3.03	1.38	5.29	1.1	4.23	1.42	6.9	1.13	4.15
N#Cc1c(N)nn(C(=O)c2ccc(NC(=O)c3ccccn3)cc2)c1-c1ccc(Cl)cc1	2.97	8.54	15.1	> 100	4.86	> 100	6.96	> 100	11.6	> 100	4.02	61.7	4.15	33.3	3.7	> 100	3.65	19.4	9.45	> 100
Cc1ccc(CCC(=O)Nc2ncc(Cc3cc(Cl)ccc3Cl)s2)o1	0.692	4.19	0.171	0.801	0.29	2.72	0.466	> 100	0.388	3.35	0.233	–	0.33	5.45	0.0694	> 100	2.81	> 66.5	0.24	> 100
CC1(CCCC2(C)CCNC2=O)OCCO1 (stereo not drawn)	–	> 10	–	> 10	–	> 10	–	> 10	–	> 10	–	> 10	–	> 10	–	> 10	–	> 10	–	> 10
[O-][n+]1onc2c3nn(-c4ccccc4)nc3ccc21	–	> 100	–	> 100	–	> 100	–	> 100	–	> 100	–	> 100	–	> 100	–	> 100	–	> 88.7	–	> 100
O=C1CCCC1C(=O)Nc1ccc2ccccc2c1 (stereo not drawn)	–	> 100	–	> 100	–	> 100	–	> 100	–	> 100	–	> 100	–	> 100	–	> 100	–	> 100	–	> 100
COc1ccc(CN2CCc3c(Cl)nc(N)nc3C2=O)c(OC)c1	23.9	48.1	23.7	81.5	16.8	42.2	16.8	61.7	14.8	30.3	18.6	42.6	15.8	33.3	13.6	28.1	33.1	99.3	13.5	27.6
C#Cc1cccc(NC(=O)Nc2ccccc2NC(=O)CCl)c1	29.7	> 82.5	–	–	20	65.5	19.3	66.2	16.6	34.6	16.5	33.9	32	> 82.5	19.3	45.2	25.5	> 82.5	13.8	25.8
CC/C(=C(\c1ccccc1)c1ccc(OCCN(C)C)cc1)c1ccccc1	2.96	–	2.3	–	6.8	–	4.74	–	3.59	–	–	–	–	–	2.95	–	–	–	1.75	–
CC(C)(O)Cn1c(=O)c(Oc2ccc(F)cc2F)cc2cnc(NC3CCOCC3)nc21	> 25	> 25	> 14.7	> 25	> 25	> 25	–	–	> 25	> 25	> 25	> 25	> 25	> 25	> 25	> 25	> 25	> 25	> 25	> 25
COc1ccc([C@H]2c3cc(OC)c(OC)cc3C=C(C=O)C2CO)cc1OC (stereo partly drawn)	7.15	> 100	19	> 100	> 100	> 100	5.29	> 100	6.74	> 100	3.51	> 100	8.56	> 100	3.49	> 100	–	–	4.32	> 100
CC/C=C/[C@@H]1C=C[C@@H]2CCC[C@H]2[C@@H]1CC[C@H](O)[C@H](C)N	1.72	3.09	1.62	5.58	2.49	8.03	15.2	31.9	1.78	3.22	1.84	3.46	–	–	1.64	3	1.36	2.68	1.61	2.96
